{
  "source": "paper PMC1876254",
  "about": "(Plant Molecular Biology, 2007)",
  "molecular_target": "T1, LeMTS1 (Solanum lycopersicum, UniProt Q1XBU5)",
  "T1 sequence (Q1XBU5 44-609)": "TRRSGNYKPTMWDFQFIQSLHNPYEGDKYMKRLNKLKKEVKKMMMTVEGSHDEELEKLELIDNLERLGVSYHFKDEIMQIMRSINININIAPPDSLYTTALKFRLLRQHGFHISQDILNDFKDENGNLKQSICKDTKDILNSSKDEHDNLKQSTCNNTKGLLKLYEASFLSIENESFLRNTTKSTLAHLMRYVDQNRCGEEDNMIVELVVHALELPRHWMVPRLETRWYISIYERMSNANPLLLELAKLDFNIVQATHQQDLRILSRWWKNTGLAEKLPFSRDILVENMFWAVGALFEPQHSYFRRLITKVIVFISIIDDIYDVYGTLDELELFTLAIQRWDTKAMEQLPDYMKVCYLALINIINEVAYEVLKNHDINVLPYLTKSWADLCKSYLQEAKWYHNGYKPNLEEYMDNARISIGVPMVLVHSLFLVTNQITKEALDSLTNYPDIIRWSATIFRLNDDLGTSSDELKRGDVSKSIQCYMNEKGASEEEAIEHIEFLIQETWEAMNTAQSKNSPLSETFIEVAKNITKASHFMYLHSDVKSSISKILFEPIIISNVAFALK",
  "assay": "terpene synthase assay, SPME GC-TOF-MS of products",
  "format": "biochemical",
  "settings": "product (E)-nerolidol; 10 uM substrate, 10 mM MgCl2, 2 mM MnCl2, HEPES pH 7.5, 30 C, 1 h",
  "data": [
    {"molecule": "CC(C)=CCC/C(C)=C/CC/C(C)=C/COP(=O)(O)OP(=O)(O)O", "note": "[FPP]", "values": [
      {"measurement": "terpene synthase assay, SPME GC-TOF-MS of products", "result": "LeMTS1 was also able to utilize the sesquiterpene precursor farnesyl diphosphate (FPP) as substrate"}
    ]}
  ]
}
